Data: patent US11607458B2 (Georgia State University Research Foundation, Inc, priority 2017, dated 2023)
Values joined by “and” are separate entries in the source; they are usually repeats but may differ in a detail not shown here. Equal entries are not always repeated. Where two headings read alike, the source gives them in different places.

Columns and labels:
HeLa cells = assay: Cytotoxicity studies in HeLa cells (MTT assay / crystal violet assay); format: cell-based
Description: Cell cultures. HeLa cells (ATCC) were used in the following cell culture studies. HeLa cells were maintained in DMEM (Dulbecco's Modified Eagle's Medium) supplemented with 10% fetal bovine serum (MidSci; S01520HI), and 1% penicillin-streptomycin (Sigma-Aldrich; P4333) at 37° C. with 5% CO2.
Cytotoxicity studies. Test compound was dissolved in DMSO to afford a stock solution. The final concentration of DMSO in the cell culture was 1% (v/v) in PBS. HeLa cells were seeded in 96-well plates one day before the experiment. Different concentrations of prodrug was added into the cell culture. The cells were then incubated for 48 h at 37° C. with 5% CO2. The cell viability was tested by the MTT assay described in Levitz, S. M., et al. J Infect Dis 1985, 152, 938-945. Specifically, after 48 h of incubation, 5 mg/mL MTT (3-(4,5-dimethylthiazol-2-yl)-2,5-diphenyltetrazolium bromide) was added into the cell culture. After incubation for 4 h, the supernatant was removed and 100 μL DMSO was added into the wells containing the cells. After shaking gently for 3 min, absorbance at 605 nm was read by a plate reader.
Cytotoxicity studies using crystal violet assay. The test compound was dissolved in DMSO to afford a stock solution. The final concentration of DMSO in cell culture was 1% (v/v) in PBS. HeLa cells were seeded in 96-well plates one day before the experiment. Different concentrations of the test compound were added into the cell culture. The cells were then incubated for 48 h at 37° C. with 5% CO2. Cell viability was tested by the crystal violet assay. Specifically, after 48 h of incubation, the cells were fixed in 100% methanol for 10 min and stained for 20 min with a 1% crystal violet solution in 50% methanol, followed by 5 repeated washings with PBS. 50 μL of DMSO was added to each well. After 20 min of incubation, the plates were analyzed in a microplate reader at 595 nm.
Similar results were observed when the alkyne concentration was decreased to 10 μM. For example, the IC50 of TPP-Dox prodrug 1c was about 2 μM in the presence of 2b, while the IC50 for Dox prodrug 1b was well over 10 μM in the presence of 10 μM of the alkyne trigger 2a (FIG. 3a). As controls, both the IC50 values of 1c and 2b alone were higher than 40 μM, and the treatment of 20 μM of alkyne 2a or 2b alone had no effect on cell viability. […] Without such an enrichment, the reaction is expected to be slow, resulting in a lower level of active Dox being released. […] Thus, mitochondrial enrichment leads to triggered release of the drug. The same concept is applicable to the delivery of drugs through other targeting approaches such as receptor-mediated drug delivery.

[1] = Stability of tetrazine prodrugs in PBS with or without 1 mM cysteine (HPLC); format: physicochemical; conditions: 25 μM, n = 4; for Prodrugs remaining, 24 h in PBS with 1 mM Cys at 37° C. / Prodrugs remaining, 24 h in PBS with 1 mM Cys at r.t: PBS (5% DMSO) with 1 mM Cys; for Prodrugs remaining, 24 h in PBS at 37° C. / Prodrugs remaining, 24 h in PBS at r.t: PBS (5% DMSO)
Description: Due to the electron deficient nature of the tetrazine moiety, the stability of the tetrazine-linked prodrugs in the presence of high concentrations of thiol species was studied. In general, a solution of tetrazine prodrug (500 μL, 500 μM) was added to either 9.5 mL of PBS or 1 mM cysteine solution in PBS in a 20-mL vial. The solution was stirred at r.t. or 37° C. for 24 h. The reaction solution was injected into HPLC, and analyzed with Method A (described above) for prodrugs 1b and 1c, and Method B for prodrug 1d.
Prodrug (1d or 1b, 25 μM in PBS alone or in the presence of 1 mM cysteine (Cys) in PBS) was incubated at r.t or 37° C. for 24 h. Then HPLC was used to monitor the concentration of the remaining prodrug (Table 5). No stability problems were observed.

[2] = Determination of the lactonization rate constants (k1) by HPLC; format: physicochemical; conditions: for Lactonization rate constant k1: r.t., PBS (15% DMSO)
Description: General procedure for the determination of the lactonization rate constants. To a 9 mL PBS in a 20-mL vial was added a solution of the respective tetrazine prodrug (500 μL, 500 μM). Then 1 mL of the respective alkyne (50 mM in DMSO) was added to afford a final concentration of 5 mM in PBS (15% DMSO). The reaction was stirred at r.t. Every 30 min about 500 μL the reaction mixture was taken out and 20 μL of them was injected into the HPLC by an autosampler; the rest of them was poured back to the reaction mixture. The reaction rate constant, k1, was determined by fitting the area in HPLC chromatogram of the intermediate versus time using eq. 3: Y=A exp(−k1t) eq. 3 where Y is the intermediate areas, and t is the time.

[3] = alkyne 2c, no intermediates observed by HPLC

SMILES | Prodrugs remaining, 24 h in PBS with 1 mM Cys at 37° C. [1] [%] | Prodrugs remaining, 24 h in PBS with 1 mM Cys at r.t [1] [%] | Prodrugs remaining, 24 h in PBS at 37° C. [1] [%] | Prodrugs remaining, 24 h in PBS at r.t [1] [%] | Lactonization rate constant k1 ([2]; alkyne 2b 5 mM, Exp 2) [h⁻¹] | Lactonization rate constant k1 ([2]; alkyne 2b 5 mM, Expt 1) [h⁻¹] | Lactonization rate constant k1 ([2]; alkyne 2b 5 mM, Expt. 3) [h⁻¹] | k1 at r.t (lactonization) ([2]; alkyne 2b, n = 3) [h⁻¹] | k1 at r.t (lactonization) [2, 3] | other results
C#CCOc1ccc(-c2nnc(C(=O)NC3CC(OC4CC(O)(C(=O)CO)Cc5c(O)c6c(c(O)c54)C(=O)c4c(OC)cccc4C6=O)OC(C)C3O)nn2)cc1 (stereo not shown) [1b] | 76 ± 5 | 80 ± 5 | 78 ± 5 | 85 ± 5 | 0.179 | 0.223 | 0.196 | 0.20 ± 0.04 | too fast to detect | IC50 (HeLa cells; compound alone, 48 h, read-out: IC50 in Hela cell line): > 100000 nM; IC50 (HeLa cells; in the presence of 10 μM alkyne trigger 2a, 48 hours (FIG. 3a), read-out: IC50 in HeLa cells): > 10000 nM; IC50 (HeLa cells; in the presence of 20 μM alkyne 2a, 48 hours (FIG. 3b), read-out: IC50 in HeLa cells): ~10000 nM; IC50 (HeLa cells; in the presence of 50 μM alkyne 2b, 48 h, listed as Dox-prodrug 1b, read-out: IC50 in Hela cell line): ~2000 nM; IC50 (HeLa cells; in the presence of 50 μM alkyne 2b, 48 h, listed as Dox-prodrug lb, read-out: IC50 in Hela cell line): 2300 ± 400 nM; IC50 (HeLa cells; in the presence of 50 μM alkyne 2d, 48 h, listed as Dox-prodrug 1b, read-out: IC50 in Hela cell line): ~1500 nM and 1500 nM; IC50 (HeLa cells; in the presence of 100 μM alkyne 2d, 48 h, read-out: IC50 in Hela cell line): 1300 ± 200 nM; Lactonization rate constant k1 ([2]; alkyne 2a 5 mM, Exp 2): 0.206 h⁻¹; Lactonization rate constant k1 ([2]; alkyne 2a 5 mM, Expt 1): 0.185 h⁻¹; Lactonization rate constant k1 ([2]; alkyne 2a 5 mM, Expt. 3): 0.229 h⁻¹; k1 at r.t (lactonization) ([2]; alkyne 2a, n = 3): 0.21 ± 0.04 h⁻¹
COc1cccc2c1C(=O)c1c(O)c3c(c(O)c1C2=O)CC(O)(C(=O)CO)CC3OC1CC(NC(=O)c2nnc(-c3ccc(OCc4cn(CCCCCCCCC[P+](c5ccccc5)(c5ccccc5)c5ccccc5)nn4)cc3)nn2)C(O)C(C)O1 (stereo not shown) [1c] |  |  |  |  | 0.191 | 0.225 | 0.265 | 0.22 ± 0.05 |  | IC50 (HeLa cells; Homo sapiens, HeLa, 48 h, compound alone, 48 h, read-out: IC50 in Hela cell line): > 40000 nM; IC50 (HeLa cells; Homo sapiens, HeLa, 48 h, in the presence of 10 μM alkyne 2b, 48 hours (FIG. 3a), read-out: IC50 in HeLa cells): ~2000 nM; IC50 (HeLa cells; Homo sapiens, HeLa, 48 h, in the presence of 20 μM TPP-alkyne 2b, 48 hours (FIG. 3b), read-out: IC50 in HeLa cells): ~1500 nM
C#CCOc1ccc(-c2nnc(C(=O)NCCCOCCOCCOCCCNS(=O)(=O)c3cccc4c(N(C)C)cccc34)nn2)cc1 [1d] | 81 ± 5 | 88 ± 5 | 85 ± 5 | 91 ± 5 | 0.184 | 0.162 | 0.142 | 0.16 ± 0.04 | too fast to detect | Lactonization rate constant k1 ([2]; alkyne 2d 5 mM, Exp 2): 0.0291 h⁻¹; Lactonization rate constant k1 ([2]; alkyne 2d 5 mM, Expt 1): 0.0253 h⁻¹; Lactonization rate constant k1 ([2]; alkyne 2d 5 mM, Expt. 3): 0.0332 h⁻¹; k1 at r.t (lactonization) ([2]; alkyne 2d, n = 3): 0.029 ± 0.006 h⁻¹
